The results in this text go back to ChEMBL document CHEMBL5380795, “Design, Synthesis, and Bioactivity Investigation of Cyclic Lipopeptide Antibiotics Containing Eight to Nine Amino Acids” (J Med Chem, 2023).

≈ marks a conversion by molar mass, not a printed value. Bridge positions count the residues as written; N and C are the ends. Square brackets hold non-standard residues; d marks the D form. Peptide text beside a SMILES is read from it. * marks the point of attachment. X1 = CC[C@H](C)CCCCC(=O)*; Dab = NCC[C@H](N)C(=O)O

Series [1] has as its system Staphylococcus aureus. As to the kind of experiment: Antibacterial activity against methicillin resistant Staphylococcus aureus ATCC 33591 assessed as inhibition of bacterial growth incubated for 18 to 24 hrs by broth microdilution method. The series is classed as functional. Particulars: time 18-24 hrs.
Series [2] concerns Staphylococcus aureus. The experiment in a line: Antibacterial activity against Staphylococcus aureus ATCC 29213 assessed as inhibition of bacterial growth incubated for 18 to 24 hrs by broth microdilution method. The series is classed as functional. Conditions: time 18-24 hrs.
In series [3] the test system is Staphylococcus epidermidis. The experiment in a line: Antibacterial activity against methicillin resistant Staphylococcus epidermidis clinical isolate 19-5 assessed as inhibition of bacterial growth incubated for 18 to 24 hrs by broth microdilution method. The series is classed as functional. Conditions: time 18-24 hrs.
Series [4] concerns Staphylococcus epidermidis. The experiment in a line: Antibacterial activity against methicillin resistant Staphylococcus epidermidis clinical isolate 19-6 assessed as inhibition of bacterial growth incubated for 18 to 24 hrs by broth microdilution method. The format is functional. Conditions: time 18-24 hrs.
In series [5] the test system is Escherichia coli. The experiment in a line: Antibacterial activity against Escherichia coli ATCC BAA-2523 assessed as inhibition of bacterial growth incubated for 18 to 24 hrs by broth microdilution method. Particulars: time 18-24 hrs. The series is classed as functional.
The test system of series [6] is Escherichia coli. The experiment in a line: Antibacterial activity against Escherichia coli NCTC 13353 assessed as inhibition of bacterial growth incubated for 18 to 24 hrs by broth microdilution method. The series is classed as functional. Particulars: time 18-24 hrs.
Series [7] deals with Escherichia coli. As to the kind of experiment: Antibacterial activity against Escherichia coli clinical isolate 19-2 assessed as inhibition of bacterial growth incubated for 18 to 24 hrs by broth microdilution method. The series is classed as functional. Particulars: time 18-24 hrs.
Series [8] concerns Escherichia coli. As to the kind of experiment: Antibacterial activity against KPC producing Escherichia coli ATCC BAA-2340 assessed as inhibition of bacterial growth incubated for 18 to 24 hrs by broth microdilution method. The format is functional. Conditions: time 18-24 hrs.
Series [9] deals with Klebsiella pneumoniae. As to the kind of experiment: Antibacterial activity against carbapenem resistant Klebsiella pneumoniae clinical isolate 19-15 assessed as inhibition of bacterial growth incubated for 18 to 24 hrs by broth microdilution method. The series is classed as functional. Particulars: time 18-24 hrs.
Series [10] deals with Klebsiella pneumoniae. As to the kind of experiment: Antibacterial activity against carbapenem resistant Klebsiella pneumoniae clinical isolate 19-17 assessed as inhibition of bacterial growth incubated for 18 to 24 hrs by broth microdilution method. The series is classed as functional. Particulars: time 18-24 hrs.
Series [11] has as its system Klebsiella pneumoniae. The experiment in a line: Antibacterial activity against KPC producing Klebsiella pneumoniae ATCC BAA-1705 assessed as inhibition of bacterial growth incubated for 18 to 24 hrs by broth microdilution method. The series is classed as functional. Particulars: time 18-24 hrs.
Series [12] has as its system Pseudomonas aeruginosa. As to the kind of experiment: Antibacterial activity against Pseudomonas aeruginosa clinical isolate 19-1 assessed as inhibition of bacterial growth incubated for 18 to 24 hrs by broth microdilution method. The format is functional. Particulars: time 18-24 hrs.
The subject of series [13] is Pseudomonas aeruginosa. The experiment in a line: Antibacterial activity against carbapenem resistant Pseudomonas aeruginosa clinical isolate 19-3 assessed as inhibition of bacterial growth incubated for 18 to 24 hrs by broth microdilution method. The series is classed as functional. Conditions: time 18-24 hrs.
Series [14] relates to Pseudomonas aeruginosa. As to the kind of experiment: Antibacterial activity against carbapenem resistant Pseudomonas aeruginosa clinical isolate 17-1 assessed as inhibition of bacterial growth incubated for 18 to 24 hrs by broth microdilution method. The format is functional. Particulars: time 18-24 hrs.
The subject of series [15] is Pseudomonas aeruginosa. As to the kind of experiment: Antibacterial activity against Pseudomonas aeruginosa ATCC 27853 assessed as inhibition of bacterial growth incubated for 18 to 24 hrs by broth microdilution method. The format is functional. Conditions: time 18-24 hrs.
The subject of series [16] is Acinetobacter baumannii. The experiment in a line: Antibacterial activity against carbapenem resistant Acinetobacter baumannii clinical isolate 19-8 assessed as inhibition of bacterial growth incubated for 18 to 24 hrs by broth microdilution method. The series is classed as functional. Particulars: time 18-24 hrs.
Series [17] relates to Acinetobacter baumannii. The experiment in a line: Antibacterial activity against oxacillinase-27 producing Acinetobacter baumannii NCTC 13304 assessed as inhibition of bacterial growth incubated for 18 to 24 hrs by broth microdilution method. The format is functional. Particulars: time 18-24 hrs.
For series [18], the system named is Escherichia coli. As to the kind of experiment: Antibacterial activity against Escherichia coli ATCC 25922 assessed as inhibition of bacterial growth incubated for 18 to 24 hrs by broth microdilution method. Particulars: time 18-24 hrs. The series is classed as functional.
Series [19] deals with Escherichia coli. As to the kind of experiment: Antibacterial activity against Escherichia coli. The series is classed as functional.
Series [20] has as its system Pseudomonas aeruginosa. The experiment in a line: Antibacterial activity against Pseudomonas aeruginosa. The format is functional.
Series [21] deals with Klebsiella pneumoniae. The experiment in a line: Antibacterial activity against Klebsiella pneumoniae. The series is classed as functional.
The subject of series [22] is Acinetobacter baumannii. As to the kind of experiment: Antibacterial activity against Acinetobacter baumannii. The series is classed as functional.
Series [23] can be described thus: Cytotoxicity against human HK-2 cells assessed as inhibition of cell growth incubated for 72 hrs by CCK-8 assay. The series is classed as toxicity, cell-based.
Series [24] can be described thus: Selectivity index, ratio of IC50 for cytotoxicity against human HK-2 cells to MIC for antibacterial activity against Escherichia coli ATCC BAA-2523. The series is classed as toxicity, cell-based.
Series [25] in a line: Plasma protein binding in human at 2 uM incubated for 6 hrs by equilibrium dialysis based LC-MS/MS analysis. The format is ADME, cell-free. Conditions: read-out: PPB (converted).
The subject of series [26] is Staphylococcus aureus. The experiment in a line: Antibacterial activity against Staphylococcus aureus. The series is classed as functional.
In series [27] the test system is Staphylococcus epidermidis. As to the kind of experiment: Antibacterial activity against Staphylococcus epidermidis. The series is classed as functional.
A further series concerns Candida albicans. The experiment in a line: Antifungal activity against Candida albicans. The series is classed as functional.

Consider `CC[C@H](C)CCCCC(=O)N[C@@H](CCN)C(=O)N[C@H](C(=O)N[C@@H](CCN)C(=O)N[C@H]1CCNC(=O)[C@H]([C@@H](C)O)NC(=O)[C@H](CCN)NC(=O)[C@H](CCN)NC(=O)[C@H](CC(C)C)NC(=O)[C@@H](Cc2ccccc2)NC(=O)[C@H](CCN)NC1=O)[C@@H](C)O` (X1-[Dab]T[Dab][Dab][Dab][dF]L[Dab][Dab]T; lactam 4-C), for which the minimal inhibitory concentration (MIC) in the series on Staphylococcus aureus [1] is above 64 µg/mL; in the series on Staphylococcus aureus [2], above 64 µg/mL; in [3], 4 µg/mL (≈ 3.32 µM); in series [4] it was 16 µg/mL (≈ 13.3 µM); in the series with Escherichia coli [5], below 0.06 µg/mL; with Escherichia coli [6] it was 0.5 µg/mL (≈ 0.415 µM). Also, the MIC in the series on Escherichia coli [7] is at most 0.06 µg/mL; in the series with Escherichia coli [8], at most 0.06 µg/mL; in the series on Klebsiella pneumoniae [9] it was 0.125 µg/mL (≈ 0.104 µM); in the series with Klebsiella pneumoniae [10], 0.25 µg/mL (≈ 0.208 µM); with Klebsiella pneumoniae [11], at most 0.06 µg/mL; in the series on Pseudomonas aeruginosa [12] it was 0.25 µg/mL (≈ 0.208 µM). For the same molecule, the minimum inhibitory concentration (MIC) in the series on Pseudomonas aeruginosa [13] is 0.125 µg/mL (≈ 0.104 µM); in the series with Pseudomonas aeruginosa [14], 0.25 µg/mL (≈ 0.208 µM); in the series on Pseudomonas aeruginosa [15], 0.5 µg/mL (≈ 0.415 µM); with Acinetobacter baumannii [16] it was at most 0.06 µg/mL; in the series with Acinetobacter baumannii [17], at most 0.06 µg/mL; in the series with Escherichia coli [18] it was 0.25 µg/mL (≈ 0.208 µM). Also, the minimal inhibitory concentration (MIC) against Escherichia coli [19] was 0.05 µg/mL (≈ 0.0415 µM); in the series with Pseudomonas aeruginosa [20] it was 0.2 µg/mL (≈ 0.166 µM); against Klebsiella pneumoniae [21], 1 µg/mL (≈ 0.831 µM); against Acinetobacter baumannii [22], 1 µg/mL (≈ 0.831 µM).
With `CCCCCCC[C@@H](O)CC(=O)N[C@H](CCN)C(=O)N[C@H]1CCNC(=O)[C@H](CC(C)C)NC(=O)[C@H](CCN)NC(=O)[C@H](CCN)NC(=O)[C@H](CC(C)C)NC(=O)[C@@H](CC(C)C)NC(=O)[C@H](CCN)NC1=O`, the MIC in the series with Staphylococcus aureus [1] is above 64 µg/mL; in the series on Staphylococcus aureus [2], above 64 µg/mL; in series [3], 2 µg/mL (≈ 1.98 µM); in [4], 16 µg/mL (≈ 15.8 µM); in the series with Escherichia coli [5], 16 µg/mL (≈ 15.8 µM); in the series with Escherichia coli [6], 16 µg/mL (≈ 15.8 µM). Besides, the minimum inhibitory concentration (MIC) stood at 16 µg/mL (≈ 15.8 µM) in the series with Escherichia coli [7]; 8 µg/mL (≈ 7.92 µM) with Escherichia coli [8]; 16 µg/mL (≈ 15.8 µM) in the series with Klebsiella pneumoniae [9]; 16 µg/mL (≈ 15.8 µM) in the series with Klebsiella pneumoniae [10]; 16 µg/mL (≈ 15.8 µM) in the series on Klebsiella pneumoniae [11]; 2 µg/mL (≈ 1.98 µM) with Pseudomonas aeruginosa [12]. In addition, the MIC amounted to 4 µg/mL (≈ 3.96 µM) with Pseudomonas aeruginosa [13]; 2 µg/mL (≈ 1.98 µM) in the series on Pseudomonas aeruginosa [14]; 1 µg/mL (≈ 0.99 µM) with Pseudomonas aeruginosa [15]; 4 µg/mL (≈ 3.96 µM) with Acinetobacter baumannii [16]; 8 µg/mL (≈ 7.92 µM) with Acinetobacter baumannii [17]; 0.1 µg/mL (≈ 0.099 µM) against Escherichia coli [19]. The MIC against Pseudomonas aeruginosa [20] worked out at 0.4 µg/mL (≈ 0.396 µM); with Klebsiella pneumoniae [21] it was 0.78 µg/mL (≈ 0.772 µM); in the series on Acinetobacter baumannii [22], 4 µg/mL (≈ 3.96 µM); against Staphylococcus aureus [26], 3.1 µg/mL (≈ 3.07 µM); in series [27], 0.6 µg/mL (≈ 0.594 µM); against Candida albicans, 4.7 µg/mL (≈ 4.65 µM). Further, the half-inhibitory concentration (IC50) at 72 h in [23] came to 60.7 µg/mL (≈ 60.1 µM). Also, the selectivity ratio in series [24] came to 3.8. The fraction unbound at 6 h, 2 µM in [25] is 0.0216.
In the case of `CC[C@H](C)CCCCC(=O)N[C@@H](CCN)C(=O)N[C@H](C(=O)N[C@@H](CCN)C(=O)N[C@H]1CCNC(=O)[C@H]([C@@H](C)O)NC(=O)[C@H](CCN)NC(=O)[C@H](CCN)NC(=O)[C@H](CC(C)C)NC(=O)[C@@H](CC(C)C)NC(=O)[C@H](CCN)NC1=O)[C@@H](C)O` (X1-[Dab]T[Dab][Dab][Dab][dL]L[Dab][Dab]T; lactam 4-C), the MIC amounted to 0.05 µg/mL (≈ 0.0428 µM) in the series on Escherichia coli [19], 0.2 µg/mL (≈ 0.171 µM) with Pseudomonas aeruginosa [20], 1 µg/mL (≈ 0.855 µM) with Klebsiella pneumoniae [21] and 1 µg/mL (≈ 0.855 µM) against Acinetobacter baumannii [22].
